Laboratory results taken from patent US20100227793A1, “Compositions and Methods for Treating Amyotrophic Lateral Sclerosis” (priority 2009, published 2010).
“Also recorded” adds a separate entry of the source.

Key:
[1] = test system: inhibition of anterograde FAT by G93A-SOD1; test: Co-perfusion of G93A-SOD1 with kinase inhibitors in squid axoplasm (vesicle motility assay); assay type: cell-based; conditions: for prevention of the inhibition of anterograde FAT induced by G93A-SOD1: co-perfused with recombinant G93A-SOD1 in axoplasm
Method: Increased phosphorylation of neurofilament indicated altered kinase activity with mutant SOD1 and kinases represent a major mechanism for the regulation of conventional kinesin (Donelan, et al. (2002) J. Biol. Chem. 277:24232-42; Morfini, et al. (2006) Nat. Neurosci. 9:907-16; Morfini, et al. (2002) EMBO J. 23:281-93; Morfini, et al. (2001) Dev. Neurosci. 23:364-76). Accordingly, it was determined whether specific protein kinases mediated the effect of mutant SOD1 on anterograde FAT. To this end, axoplasms were co-perfused with recombinant G93A-SOD1 and specific pharmacological or peptide inhibitors of protein kinases. Co-perfusion approaches have facilitated the identification of kinase-dependent pathogenic pathways in other models.
SB203580 is a highly specific pharmacological kinase inhibitor of the mitogen-activated protein kinase (MAPK) p38, and its specificity has been evaluated for more than 100 kinases (Fabian, et al. (2005) Nat. Biotechnol. 23:329-36).
In addition to the docking interactions of MAPKs with MKKs, substrates and regulators there are specific motifs that control the interactions of MKKKs and MKKs. A docking site termed DVD (domain for versatile docking) is found in several MKKs including MKK3 and MKK6, which are involved in p38 regulation. […] Observations of p38 activation in an ALS mouse model prompted the evaluation of the role of MKKs in mediating the inhibitory effect of mutant SOD1 on FAT. To this end, pharmacological inhibitors of MKKKs were co-perfused along with SOD1-G93A in squid axoplasm. The MLK-specific inhibitor CEP11004 (Ganguly, et al. (2004) J. Neurochem. 88(2):469) was ineffective, but co-perfusion of mutant SOD1 with DVD peptide prevented the effects of mutant SOD1 on FAT. The DVD site on MKKs is required for docking and activation by a subset of upstream MKKKs (ASK1, TAK1, etc.), and peptides based on this sequences prevents MAPK activation in cultured cells (Takekawa, et al. (2005) Mol. Cell. 18(3):295).

[2] = test system: N2A cells stably transfected with G85R-SOD1; test: Caspase-3 activity assay, cells exposed to cyclosporine (CsA); assay type: cell-based; conditions: various concentrations of CsA, presence or absence of inhibitor
Method: (§1) Multiple studies have documented activation of apoptotic mechanism in association with mutant SOD1 expression (Pasinelli, et al. (2004) Neuron 43:19-30). […] To evaluate the role of p38 in this process, cell viability (LDH) and caspase activity assays were performed using N2A cells stably transfected with WT-SOD1 or G85R-SOD1 constructs. […] N2A cells were exposed to various concentrations of CsA in the presence or absence of the p38 inhibitor SB203580.

[3] = test system: N2A cells stably transfected with G85R-SOD1; test: Cell viability (LDH) assay, cells exposed to cyclosporine (CsA); assay type: cell-based; conditions: various concentrations of CsA, presence or absence of inhibitor
Method: as §1

[4] = test system: fast axonal transport (FAT), anterograde (conventional kinesin-dependent) and retrograde (CDyn-dependent); test: Vesicle motility assays in isolated squid axoplasm perfused with SOD1 polypeptides; assay type: cell-based; conditions: polypeptides perfused at 5 μM; video-enhanced microscopy over 50 minutes
Method: Although the axonal compartment represents a critical pathogenic target in ALS, axon-specific effects of mutant SOD1 have not been previously addressed. […] However, it was not clear whether those defects resulted from pathogenic events in the neuronal cell body, or from alterations of cellular processes within the axonal compartment (Conforti, et al. (2007) Trends Neurosci. 30:159-66). Therefore, axon-autonomous effects of pathogenic SOD1 on FAT were evaluated using vesicle motility assays in isolated squid axoplasm, which lacks both nuclear and protein synthetic synthesis compartments. This experimental system allows for quantitative analysis of MBOs moving in both anterograde (conventional kinesin-dependent) and retrograde (cytoplasmic dynein-dependent) FAT rates. Further, the lack of plasma membrane in this preparation facilitates an evaluation of the effects of neuropathogenic proteins on FAT.
Highly purified (>95%), recombinant forms of wild-type SOD1 (WT-SOD1) and […] fALS-related SOD1 mutants (G93A-SOD1, G85R-SOD1, H46R and A4V-SOD1) were according to standard methods (Strange, et al. (2003) J. Mol. Biol. 328:877-891). Polypeptides were perfused at 5 μM concentration, and both anterograde (conventional kinesin-dependent) and retrograde (CDyn-dependent) FAT rates analyzed by video-enhanced microscopy over 50 minutes. Perfusion of wild type SOD1 (WT-SOD1) had no effect on either direction of FAT. […] Further, the presence of ATP (5 mM) in the perfusion buffer also ruled out mutant SOD1-induced deficits in ATP production.

NF220 (neurofilament) = test: Metabolic labeling of isolated sister axoplasms with 32P-ATP, autoradiography/PHOSPHORIMAGER; assay type: cell-based, squid; conditions: compared to WT-SOD1-perfused sister axon; 50-minute incubation; n=4; p≦0.0284
Method: To determine whether mutant SOD1 could induce activation of axonal kinases, metabolic labeling experiments were performed in isolated axoplasms. These procedures helped evaluate effects of WT-SOD1 and G93-SOD1 polypeptides on the phosphorylation pattern of axonal proteins. Two axons from the same squid (“sister” axons) were dissected and extruded. One axon was perfused with WT-SOD1, whereas the contralateral “sister” axon was perfused with G93A-SOD1 in the presence of P^32-radiolabelled ATP. After a 50-minute incubation, axoplasms were lysed and analyzed by autoradiography. Neurofilament (NF) proteins represent the major phosphoproteins proteins in both squid axoplasm and mammalian axons. Consistent with this, increased phosphorylation of NFs represents a well-documented feature early in the course of ALS.

JNK = test: Immunoblot of sister axoplasms with activation-specific phosphoantibodies (JNK); assay type: cell-based, squid; conditions: G93A-SOD1 vs WT-SOD1-perfused axoplasms
Method: (§2) To refine this identification, activation of various p38 and other NF kinases were evaluated in “sister” axoplasms. […] Quantitative analysis of immunoblots indicated G93A-SOD1 induced approximately a 4-fold increase in p38 activity, compared to WT-SOD1 perfused of p38 (n=8).

GSK3 = test: Immunoblot of sister axoplasms with activation-specific phosphoantibodies (GSK3); assay type: cell-based, squid; conditions: G93A-SOD1 vs WT-SOD1-perfused axoplasms
Method: as §2

p38 = test: Immunoblot of sister axoplasms with antibodies against phosphorylated, catalytically active p38; assay type: cell-based, squid; conditions: compared to WT-SOD1-perfused axoplasm; n=8
Method: as §2

ERK = test: Immunoblot of sister axoplasms with activation-specific phosphoantibodies (ERK); assay type: cell-based, squid; conditions: G93A-SOD1 vs WT-SOD1-perfused axoplasms
Method: as §2

[5] = test system: KHC584 (first 584 amino acid residues of kinesin-1c); test: In vitro kinase assay of recombinant p38α with KHC584; assay type: biochemical; conditions: sites mapped to Ser175 and Ser176 by LC/MS/MS
Excerpt: Although p38α was implicated in mediating the inhibitory effect of pathogenic SOD1 on FAT, specific p38α targets relevant to these effects needed to be determined (Bendotti, et al. (2005) Neurodegener. Dis. 2:128-34). […] These precedents prompted the determination of whether p38α could directly phosphorylate kinesin-1 subunits of conventional kinesin.
Liquid chromatography tandem mass spectrometry (LC/MS/MS) was used to map KHC584 residues phosphorylated by p38α. To this end, in vitro phosphorylated KHC584 was directly digested with trypsin for LC/MS/MS analysis. Trypsin digest products were fractioned on a C18 HPLC connected to an on-line electrospray ion trap mass spectrometer. Peptide identification was done using SEQUEST algorithm. KHC584 identity was confirmed by identification of multiple kinesin-1C peptides. A peptide corresponding to amino acids 174-188 with unequivocal evidence of phosphorylation by p38α was identified based on spectrum analysis, cross correlation and delta correlation values. Tandem mass spectrometry analysis (MS/MS) by collision-induced dissociation further mapped phosphorylation on both Ser175 and Ser176, consistent with studies showing phosphorylation of Ser176 by the MAPK JNK3. Remarkably, serines 175 and 176 are conserved among squid, mouse and human kinesin-1s (FIG. 4). […]

[6] = test system: fast axonal transport (FAT); test: Vesicle motility assays in squid axoplasm perfused with recombinant active p38 isoforms; assay type: cell-based
Method: Four p38 genes exist in mammals (p38α, p38β, p38γ, and p38δ) (Kyriakis & Avruch (2001) Physiol. Rev. 81:807-69). The p38α and p38β kinases are major p38 isoforms within the nervous system (Lee, et al. (2000) J. Neurosci. Res. 60:623-31), as well as being the most prominent p38 isoforms expressed in motor neurons of the anterior horn spinal cord, the main cell type affected in ALS (Ackerley, et al. (2004) Mol. Cell. Neurosci. 26:354-64). The effect of specific p38 isoforms on FAT was evaluated using vesicle motility assays. The enzymatic activities of recombinant p38 isoforms were first normalized using in vitro kinase assays with ATF-2 as substrate.

With `C[S+]([O-])c1ccc(-c2nc(-c3ccncc3)c(-c3ccc(F)cc3)[nH]2)cc1` (stereo not shown) [SB203580] the “anterograde FAT rates compared with WT-SOD1-perfused axoplasm” value ([1]; co-perfused with G93A-SOD1, FIG. 2) was “undistinguishable”, the “prevention of the inhibition of anterograde FAT induced by G93A-SOD1” value [1] was “protective effects; also recorded: completely prevented” and the “attenuation of caspase activation (caspase-3 activity)” value [2] was “significant attenuation”. The “attenuation of cell death (LDH)” value [3] was “significant attenuation”.

For “WT-SOD1: highly purified recombinant wild-type SOD1”, the “effect on anterograde FAT rate” value [4] was “no effect” and the “effect on retrograde FAT rate” value [4] was “no effect”.

For “G93A-SOD1: recombinant fALS-related SOD1 mutant G93A”, the “increase in overall NF220 phosphorylation” value (NF220 (neurofilament)) was 2 fold, the “change in JNK activity” value (JNK) was “did not reveal changes” and the “change in GSK3 activity” value (GSK3) was “did not reveal changes”. For the same molecule, the “increase in p38 activity (p-p38 immunoblot)” value (p38) was about 4 fold, the “effect on anterograde FAT rate” value [4] was “selectively inhibited” and the “change in ERK activity” value (ERK) was “did not reveal changes”.

For CEP11004, the “prevention of the inhibition of anterograde FAT induced by G93A-SOD1” value [1] was “ineffective”.

For p38α: recombinant active p38 isoform α, the “phosphorylation of KHC584” value [5] was “phosphorylated” and the “effect on FAT” value ([6]; perfused at 10 nM) was “most closely mimicked; also recorded: selective inhibition of anterograde FAT”.

B1: p38γ: recombinant active p38 isoform γ (protein, UniProt P53778 1-367, looked up)
Mitogen-activated protein …: MSSPPPARSGFYRQEVTKTAWEVRAVYRDLQPVGSGAYGAVCSAVDGRTGAKVAIKKLYRPFQSELFAKRAYRELRLLKHMRHENVIGLLDVFTPDETLDDFTDFYLVMPFMGTDLGKLMKHEKLGEDRIQFLVYQMLKGLRYIHAAGIIHRDLKPGNLAVNEDCELKILDFGLARQADSEMTGYVVTRWYRAPEVILNWMRYTQTVDIWSVGCIMAEMITGKTLFKGSDHLDQLKEIMKVTGTPPAEFVQRLQSDEAKNYMKGLPELEKKDFASILTNASPLAVNLLEKMLVLDAEQRVTAGEALAHPYFESLHDTEDEPQVQKYDDSFDDVDRTLDEWKRVTYKEVLSFKPPRQLGARVSKETPL
In the case of B1, the “effect on FAT” value ([6]; perfused at 100 nM) is reported as “lesser extent; also recorded: more modest effect”.

B2: p38δ: recombinant active p38 isoform δ (protein, UniProt O15264 1-365, looked up)
Mitogen-activated protein …: MSLIRKKGFYKQDVNKTAWELPKTYVSPTHVGSGAYGSVCSAIDKRSGEKVAIKKLSRPFQSEIFAKRAYRELLLLKHMQHENVIGLLDVFTPASSLRNFYDFYLVMPFMQTDLQKIMGMEFSEEKIQYLVYQMLKGLKYIHSAGVVHRDLKPGNLAVNEDCELKILDFGLARHADAEMTGYVVTRWYRAPEVILSWMHYNQTVDIWSVGCIMAEMLTGKTLFKGKDYLDQLTQILKVTGVPGTEFVQKLNDKAAKSYIQSLPQTPRKDFTQLFPRASPQAADLLEKMLELDVDKRLTAAQALTHPFFEPFRDPEEETEAQQPFDDSLEHEKLTVDEWKQHIYKEIVNFSPIARKDSRRRSGMKL
For B2, the “effect on FAT” value ([6]; perfused at 50 nM) was “no effect” and the “effect on FAT” value ([6]; perfused at 50 nM, listed as p385) was “did not affect FAT”.

B3: p3813: recombinant active p38 isoform β (misprinted) (protein, UniProt Q15759 1-364, looked up)
Mitogen-activated protein …: MSGPRAGFYRQELNKTVWEVPQRLQGLRPVGSGAYGSVCSAYDARLRQKVAVKKLSRPFQSLIHARRTYRELRLLKHLKHENVIGLLDVFTPATSIEDFSEVYLVTTLMGADLNNIVKCQALSDEHVQFLVYQLLRGLKYIHSAGIIHRDLKPSNVAVNEDCELRILDFGLARQADEEMTGYVATRWYRAPEIMLNWMHYNQTVDIWSVGCIMAELLQGKALFPGSDYIDQLKRIMEVVGTPSPEVLAKISSEHARTYIQSLPPMPQKDLSSIFRGANPLAIDLLGRMLVLDSDQRVSAAEALAHAYFSQYHDPEDEPEAEPYDESVEAKERTLEEWKELTYQEVLSFKPPEPPKPPGSLEIEQ
With B3 the “effect on FAT” value ([6]; perfused at 50 nM) was “inhibited both anterograde and retrograde FAT”.
